Assay results published in publication PMC10518257 (Nature Cancer, 2023).

Assays:
Type in all cases: biochemical
[1] = target: T1, panel of 255 (vepafestinib) or 256 (all other inhibitors) recombinant kinases (Homo sapiens, UniProt P07948); experiment: Kinase selectivity profiling at a single concentration (Carna Biosciences); details: 23 nM
T1 construct: purchased Carna Biosciences

[2] = target: T2, panel of 255 (vepafestinib) or 256 (all other inhibitors) recombinant kinases (Homo sapiens, UniProt P17252); experiment: as above; details: 23 nM
T2 construct: purchased Carna Biosciences

[3] = target: T3, panel of 255 (vepafestinib) or 256 (all other inhibitors) recombinant kinases (Homo sapiens, UniProt P29376); experiment: as above; details: 23 nM
T3 construct: purchased Carna Biosciences

[4] = target: T4, panel of 255 (vepafestinib) or 256 (all other inhibitors) recombinant kinases (Homo sapiens, UniProt P31749); experiment: as above; details: 23 nM
T4 construct: purchased Carna Biosciences

[5] = target: T5, panel of 255 (vepafestinib) or 256 (all other inhibitors) recombinant kinases (Homo sapiens, UniProt P42684); experiment: as above; details: 23 nM
T5 construct: purchased Carna Biosciences

[6] = target: T6, panel of 255 (vepafestinib) or 256 (all other inhibitors) recombinant kinases (Homo sapiens, UniProt Q13177); experiment: as above; details: 23 nM
T6 construct: purchased Carna Biosciences

[7] = target: T7, panel of 255 (vepafestinib) or 256 (all other inhibitors) recombinant kinases (Homo sapiens, UniProt Q15303); experiment: as above; details: 23 nM
T7 construct: purchased Carna Biosciences

[8] = target: T8, panel of 255 (vepafestinib) or 256 (all other inhibitors) recombinant kinases (Homo sapiens, UniProt Q15759); experiment: as above; details: 23 nM
T8 construct: purchased Carna Biosciences

[9] = target: T9, panel of 255 (vepafestinib) or 256 (all other inhibitors) recombinant kinases (Homo sapiens, UniProt Q7KZI7); experiment: as above; details: 23 nM
T9 construct: purchased Carna Biosciences

[10] = target: T10, panel of 255 (vepafestinib) or 256 (all other inhibitors) recombinant kinases (Homo sapiens, UniProt Q9P0L2); experiment: as above; details: 23 nM
T10 construct: purchased Carna Biosciences

[11] = target: T11, panel of 255 (vepafestinib) or 256 (all other inhibitors) recombinant kinases (Homo sapiens, UniProt Q9Y6E0); experiment: as above; details: 23 nM
T11 construct: purchased Carna Biosciences

KDR = target: T12, KDR (Homo sapiens, UniProt P35968); experiment: Dose-response IC50 on off-target kinases
T12 construct: purchased Carna Biosciences

[12] = target: T13, panel of 255 (vepafestinib) or 256 (all other inhibitors) recombinant kinases (Homo sapiens, UniProt P17948); experiment: Kinase selectivity profiling at a single concentration (Carna Biosciences); details: 22 nM
T13 construct: purchased Carna Biosciences

[13] = target: T14, panel of 255 (vepafestinib) or 256 (all other inhibitors) recombinant kinases (Homo sapiens, UniProt P30530); experiment: as above; details: 22 nM
T14 construct: purchased Carna Biosciences

[14] = target: T15, panel of 255 (vepafestinib) or 256 (all other inhibitors) recombinant kinases (Homo sapiens, UniProt P41743); experiment: as above; details: 22 nM
T15 construct: purchased Carna Biosciences

[15] = target: T16, panel of 255 (vepafestinib) or 256 (all other inhibitors) recombinant kinases (Homo sapiens, UniProt P54762); experiment: as above; details: 22 nM
T16 construct: purchased Carna Biosciences

[16] = target: T17, panel of 255 (vepafestinib) or 256 (all other inhibitors) recombinant kinases (Homo sapiens, UniProt Q92630); experiment: as above; details: 22 nM
T17 construct: purchased Carna Biosciences

[17] = target: T18, panel of 255 (vepafestinib) or 256 (all other inhibitors) recombinant kinases (Homo sapiens, UniProt Q9UF33); experiment: as above; details: 22 nM
T18 construct: purchased Carna Biosciences

[18] = target: T19, panel of 255 (vepafestinib) or 256 (all other inhibitors) recombinant kinases (Homo sapiens, UniProt P04629); experiment: as above; details: 17 nM
T19 construct: purchased Carna Biosciences

[19] = target: T20, panel of 255 (vepafestinib) or 256 (all other inhibitors) recombinant kinases (Homo sapiens, UniProt P07333); experiment: as above; details: 17 nM
T20 construct: purchased Carna Biosciences

[20] = target: T21, panel of 255 (vepafestinib) or 256 (all other inhibitors) recombinant kinases (Homo sapiens, UniProt P07947); experiment: as above; details: 17 nM
T21 construct: purchased Carna Biosciences

[21] = target: T22, panel of 255 (vepafestinib) or 256 (all other inhibitors) recombinant kinases (Homo sapiens, UniProt P08922); experiment: as above; details: 17 nM
T22 construct: purchased Carna Biosciences

[22] = target: T23, panel of 255 (vepafestinib) or 256 (all other inhibitors) recombinant kinases (Homo sapiens, UniProt P52333); experiment: as above; details: 17 nM
T23 construct: purchased Carna Biosciences

[23] = target: T24, panel of 255 (vepafestinib) or 256 (all other inhibitors) recombinant kinases (Homo sapiens, UniProt Q16288); experiment: as above; details: 17 nM
T24 construct: purchased Carna Biosciences

[24] = target: T25, panel of 255 (vepafestinib) or 256 (all other inhibitors) recombinant kinases (Homo sapiens, UniProt Q16832); experiment: as above; details: 17 nM
T25 construct: purchased Carna Biosciences
T25 sequence (Q16832 22-855): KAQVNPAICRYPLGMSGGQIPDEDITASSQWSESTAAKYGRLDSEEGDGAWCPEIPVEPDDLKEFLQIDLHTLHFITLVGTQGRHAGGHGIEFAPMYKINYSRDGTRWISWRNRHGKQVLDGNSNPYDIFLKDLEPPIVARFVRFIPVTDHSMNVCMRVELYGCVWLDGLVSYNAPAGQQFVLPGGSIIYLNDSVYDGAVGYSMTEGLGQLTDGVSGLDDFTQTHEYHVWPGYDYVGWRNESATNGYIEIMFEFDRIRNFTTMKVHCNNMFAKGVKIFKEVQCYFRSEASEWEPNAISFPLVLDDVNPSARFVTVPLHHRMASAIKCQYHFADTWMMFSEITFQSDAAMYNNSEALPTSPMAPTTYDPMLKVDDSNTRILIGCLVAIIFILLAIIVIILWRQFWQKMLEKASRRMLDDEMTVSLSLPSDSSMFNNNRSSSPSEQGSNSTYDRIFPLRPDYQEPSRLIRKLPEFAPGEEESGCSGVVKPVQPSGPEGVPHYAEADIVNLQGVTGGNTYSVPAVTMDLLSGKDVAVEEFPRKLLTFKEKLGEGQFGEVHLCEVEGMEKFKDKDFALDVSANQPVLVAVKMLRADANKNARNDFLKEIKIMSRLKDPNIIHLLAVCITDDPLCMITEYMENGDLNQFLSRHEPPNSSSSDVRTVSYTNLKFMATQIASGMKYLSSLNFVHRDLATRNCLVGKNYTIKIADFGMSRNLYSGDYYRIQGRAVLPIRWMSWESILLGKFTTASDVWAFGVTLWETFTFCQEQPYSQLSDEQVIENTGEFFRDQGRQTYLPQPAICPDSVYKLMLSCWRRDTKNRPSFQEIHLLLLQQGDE

T12 sequence (P35968 20-1356): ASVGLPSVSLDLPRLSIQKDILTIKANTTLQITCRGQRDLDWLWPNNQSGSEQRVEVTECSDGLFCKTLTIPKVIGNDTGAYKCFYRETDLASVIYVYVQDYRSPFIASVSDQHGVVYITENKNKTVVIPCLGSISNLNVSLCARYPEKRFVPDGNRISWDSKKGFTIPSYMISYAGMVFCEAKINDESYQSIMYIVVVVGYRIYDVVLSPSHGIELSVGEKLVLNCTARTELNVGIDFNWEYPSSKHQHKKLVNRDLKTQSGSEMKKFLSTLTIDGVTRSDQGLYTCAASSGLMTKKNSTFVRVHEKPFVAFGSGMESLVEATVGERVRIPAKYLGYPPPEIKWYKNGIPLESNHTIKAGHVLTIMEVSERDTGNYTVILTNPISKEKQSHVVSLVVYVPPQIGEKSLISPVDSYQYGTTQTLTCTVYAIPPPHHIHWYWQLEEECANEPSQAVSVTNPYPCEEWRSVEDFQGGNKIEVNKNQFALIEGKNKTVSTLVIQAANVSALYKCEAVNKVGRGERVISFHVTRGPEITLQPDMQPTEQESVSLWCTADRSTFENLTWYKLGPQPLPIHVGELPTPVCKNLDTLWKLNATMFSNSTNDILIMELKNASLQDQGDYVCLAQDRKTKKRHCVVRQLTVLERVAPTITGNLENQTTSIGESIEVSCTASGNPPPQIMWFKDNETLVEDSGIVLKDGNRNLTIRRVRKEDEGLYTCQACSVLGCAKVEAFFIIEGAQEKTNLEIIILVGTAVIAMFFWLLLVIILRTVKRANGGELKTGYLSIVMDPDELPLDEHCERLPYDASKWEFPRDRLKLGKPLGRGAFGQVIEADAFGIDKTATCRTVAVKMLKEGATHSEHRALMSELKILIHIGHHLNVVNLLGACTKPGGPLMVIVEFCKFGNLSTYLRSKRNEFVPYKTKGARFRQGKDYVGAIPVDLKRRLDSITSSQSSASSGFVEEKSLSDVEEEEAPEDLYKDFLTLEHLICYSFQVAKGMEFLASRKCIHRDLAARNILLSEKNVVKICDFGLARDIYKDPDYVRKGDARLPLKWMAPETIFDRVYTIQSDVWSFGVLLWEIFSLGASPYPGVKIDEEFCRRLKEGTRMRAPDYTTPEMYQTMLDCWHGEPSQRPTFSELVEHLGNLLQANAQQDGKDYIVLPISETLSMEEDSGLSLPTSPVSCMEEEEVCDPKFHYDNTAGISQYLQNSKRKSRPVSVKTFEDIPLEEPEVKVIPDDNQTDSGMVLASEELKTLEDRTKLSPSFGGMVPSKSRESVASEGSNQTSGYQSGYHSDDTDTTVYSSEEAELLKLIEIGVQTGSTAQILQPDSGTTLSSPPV
T8 sequence (Q15759 whole entry): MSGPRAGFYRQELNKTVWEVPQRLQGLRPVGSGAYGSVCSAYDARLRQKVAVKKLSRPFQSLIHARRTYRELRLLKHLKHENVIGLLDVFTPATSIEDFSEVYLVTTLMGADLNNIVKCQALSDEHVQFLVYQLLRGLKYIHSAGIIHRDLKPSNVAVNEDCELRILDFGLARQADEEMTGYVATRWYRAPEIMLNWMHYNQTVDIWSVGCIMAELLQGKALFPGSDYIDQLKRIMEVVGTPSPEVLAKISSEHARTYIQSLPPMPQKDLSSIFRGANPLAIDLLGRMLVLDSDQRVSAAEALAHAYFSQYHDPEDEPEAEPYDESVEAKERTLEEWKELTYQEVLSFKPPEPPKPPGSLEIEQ
T9 sequence (Q7KZI7 whole entry): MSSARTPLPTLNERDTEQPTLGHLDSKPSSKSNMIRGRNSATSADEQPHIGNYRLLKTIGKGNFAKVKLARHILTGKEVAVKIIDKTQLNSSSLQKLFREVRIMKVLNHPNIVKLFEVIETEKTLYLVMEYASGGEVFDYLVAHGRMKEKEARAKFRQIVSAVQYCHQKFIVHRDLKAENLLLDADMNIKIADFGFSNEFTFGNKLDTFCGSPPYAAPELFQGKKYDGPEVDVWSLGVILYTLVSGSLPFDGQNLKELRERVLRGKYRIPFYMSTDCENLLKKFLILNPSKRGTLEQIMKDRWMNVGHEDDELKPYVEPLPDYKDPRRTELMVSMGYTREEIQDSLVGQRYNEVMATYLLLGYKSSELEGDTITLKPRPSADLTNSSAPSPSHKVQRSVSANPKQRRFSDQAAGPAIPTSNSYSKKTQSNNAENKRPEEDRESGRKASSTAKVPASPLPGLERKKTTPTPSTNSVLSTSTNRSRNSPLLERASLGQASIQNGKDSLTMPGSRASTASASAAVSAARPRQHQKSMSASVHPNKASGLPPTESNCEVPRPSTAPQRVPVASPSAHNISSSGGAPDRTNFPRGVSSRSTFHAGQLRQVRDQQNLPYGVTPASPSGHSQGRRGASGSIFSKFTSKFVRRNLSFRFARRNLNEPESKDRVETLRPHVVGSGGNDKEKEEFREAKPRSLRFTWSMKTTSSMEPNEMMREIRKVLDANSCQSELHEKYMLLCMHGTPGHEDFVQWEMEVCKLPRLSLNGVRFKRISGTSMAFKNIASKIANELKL
T20 sequence (P07333 20-972): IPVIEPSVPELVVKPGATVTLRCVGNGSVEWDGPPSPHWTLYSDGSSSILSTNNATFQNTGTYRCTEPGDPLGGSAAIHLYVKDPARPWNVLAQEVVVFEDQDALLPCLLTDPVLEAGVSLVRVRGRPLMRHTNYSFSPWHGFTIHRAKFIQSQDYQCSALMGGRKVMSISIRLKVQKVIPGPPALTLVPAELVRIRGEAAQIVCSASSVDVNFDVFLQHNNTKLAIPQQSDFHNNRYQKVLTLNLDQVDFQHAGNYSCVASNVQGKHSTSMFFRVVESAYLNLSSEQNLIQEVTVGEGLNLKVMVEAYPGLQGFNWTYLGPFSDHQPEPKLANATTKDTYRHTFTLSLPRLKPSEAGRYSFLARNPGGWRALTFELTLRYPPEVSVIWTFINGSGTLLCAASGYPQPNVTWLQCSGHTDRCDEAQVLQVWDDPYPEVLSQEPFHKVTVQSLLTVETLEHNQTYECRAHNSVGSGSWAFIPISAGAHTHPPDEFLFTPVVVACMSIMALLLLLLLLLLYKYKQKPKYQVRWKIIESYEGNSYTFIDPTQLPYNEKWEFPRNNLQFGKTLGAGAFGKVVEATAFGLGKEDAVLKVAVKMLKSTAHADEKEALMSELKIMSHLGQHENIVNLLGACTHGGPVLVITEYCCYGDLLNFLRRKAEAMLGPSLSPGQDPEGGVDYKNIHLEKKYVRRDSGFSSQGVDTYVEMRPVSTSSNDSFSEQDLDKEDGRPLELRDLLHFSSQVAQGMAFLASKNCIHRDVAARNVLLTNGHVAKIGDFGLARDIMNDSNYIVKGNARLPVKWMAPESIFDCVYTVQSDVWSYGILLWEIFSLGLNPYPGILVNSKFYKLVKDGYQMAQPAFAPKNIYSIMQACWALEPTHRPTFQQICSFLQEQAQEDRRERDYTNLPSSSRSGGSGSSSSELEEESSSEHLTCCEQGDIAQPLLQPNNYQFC
T19 sequence (P04629 33-796): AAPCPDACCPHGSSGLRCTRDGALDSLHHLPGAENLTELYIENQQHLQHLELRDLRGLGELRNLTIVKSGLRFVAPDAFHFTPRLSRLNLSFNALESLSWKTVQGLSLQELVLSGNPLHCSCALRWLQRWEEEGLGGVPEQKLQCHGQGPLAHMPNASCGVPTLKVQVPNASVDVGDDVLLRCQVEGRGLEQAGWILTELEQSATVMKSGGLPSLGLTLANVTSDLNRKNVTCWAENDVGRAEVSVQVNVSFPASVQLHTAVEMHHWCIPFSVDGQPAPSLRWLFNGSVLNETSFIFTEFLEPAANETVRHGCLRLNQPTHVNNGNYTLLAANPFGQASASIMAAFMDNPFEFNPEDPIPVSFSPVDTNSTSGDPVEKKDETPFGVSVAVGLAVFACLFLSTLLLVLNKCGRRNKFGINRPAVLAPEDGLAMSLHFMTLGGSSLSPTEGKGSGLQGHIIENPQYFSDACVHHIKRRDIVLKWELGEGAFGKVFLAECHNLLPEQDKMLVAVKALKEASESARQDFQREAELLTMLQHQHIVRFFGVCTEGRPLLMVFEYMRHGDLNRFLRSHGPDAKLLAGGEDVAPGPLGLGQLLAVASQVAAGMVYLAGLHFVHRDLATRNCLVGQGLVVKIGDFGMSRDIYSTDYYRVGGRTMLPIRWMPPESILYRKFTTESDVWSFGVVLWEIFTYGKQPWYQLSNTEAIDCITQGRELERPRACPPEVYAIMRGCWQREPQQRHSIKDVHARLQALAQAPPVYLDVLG

COCc1ccc(NC(=O)c2c(C#CCN3CCOCC3)n(C3(C)CC3)c3ncnc(N)c23)cc1 [Vepafestinib, 4-amino-N-[4-(methoxymethyl)phenyl]-7-(1-methylcyclopropyl)-6-[3-(morpholin-4-yl)prop-1-yn-1-yl]-7H-pyrrolo[2,3-d]pyrimidine-5-carboxamide]
% Inhibiton LYNa [1]: 6.7%
% Inhibiton PKCα [2]: 9.1%
% Inhibiton LTK [3]: 11.3%
% Inhibiton AKT1 [4]: 7.9%
% Inhibiton ARG [5]: 7.3%
% Inhibiton PAK2 [6]: 19%
% Inhibiton HER4 [7]: 9.5%
% Inhibiton p38β [8]: 7%
% Inhibiton MARK2 [9]: 14.1%
% Inhibiton MARK1 [10]: 6.5%
% Inhibiton MST3 [11]: 13.4%
IC50 (KDR): 172 nM

COc1ccc(CN2C3CC2CN(c2ccc(-c4cc(OCC(C)(C)O)cn5ncc(C#N)c45)cn2)C3)cn1 [Selpercatinib]
% Inhibiton FLT1 [12]: 45.4%
% Inhibiton AXL [13]: 18.1%
% Inhibiton PKCι [14]: 12.7%
% Inhibiton EPHB1 [15]: 36.2%
% Inhibiton DYRK2 [16]: 17.3%
% Inhibiton EPHA6 [17]: 17.3%

CO[C@]1(C(=O)N[C@@H](C)c2ccc(-n3cc(F)cn3)nc2)CC[C@H](c2nc(C)cc(Nc3cc(C)[nH]n3)n2)CC1 [Pralsetinib]
% Inhibiton TRKA [18]: 40.8%
% Inhibiton FMS [19]: 25.5%
% Inhibiton YES [20]: 37.6%
% Inhibiton ROS [21]: 40%
% Inhibiton JAK3 [22]: 72.3%
% Inhibiton TRKC [23]: 57.7%
% Inhibiton DDR2 [24]: 72.5%
